Target: NLRP3 (Homo sapiens, UniProt Q96P20)
Test: THP-1 cell-based NLRP3 activation assay
Set-up: endogenous in cells; host or cells: THP-1 cells (PMA-differentiated, LPS-primed, nigericin-stimulated)
Details: PMA-differentiated THP-1 cells, LPS 100 ng/mL then 10 μM nigericin
Method in brief: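 After 30 min compound preincubation, inflammasome activation was triggered with 10 μM nigericin (1 h) in LPS-primed (100 ng/mL, 3 h) THP-1 cells differentiated with PMA at 20 nM/24 h or 500 nM/3 h. CellTiter-Glo measured residual cell viability.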

Sequence of NLRP3 (Q96P20 whole entry): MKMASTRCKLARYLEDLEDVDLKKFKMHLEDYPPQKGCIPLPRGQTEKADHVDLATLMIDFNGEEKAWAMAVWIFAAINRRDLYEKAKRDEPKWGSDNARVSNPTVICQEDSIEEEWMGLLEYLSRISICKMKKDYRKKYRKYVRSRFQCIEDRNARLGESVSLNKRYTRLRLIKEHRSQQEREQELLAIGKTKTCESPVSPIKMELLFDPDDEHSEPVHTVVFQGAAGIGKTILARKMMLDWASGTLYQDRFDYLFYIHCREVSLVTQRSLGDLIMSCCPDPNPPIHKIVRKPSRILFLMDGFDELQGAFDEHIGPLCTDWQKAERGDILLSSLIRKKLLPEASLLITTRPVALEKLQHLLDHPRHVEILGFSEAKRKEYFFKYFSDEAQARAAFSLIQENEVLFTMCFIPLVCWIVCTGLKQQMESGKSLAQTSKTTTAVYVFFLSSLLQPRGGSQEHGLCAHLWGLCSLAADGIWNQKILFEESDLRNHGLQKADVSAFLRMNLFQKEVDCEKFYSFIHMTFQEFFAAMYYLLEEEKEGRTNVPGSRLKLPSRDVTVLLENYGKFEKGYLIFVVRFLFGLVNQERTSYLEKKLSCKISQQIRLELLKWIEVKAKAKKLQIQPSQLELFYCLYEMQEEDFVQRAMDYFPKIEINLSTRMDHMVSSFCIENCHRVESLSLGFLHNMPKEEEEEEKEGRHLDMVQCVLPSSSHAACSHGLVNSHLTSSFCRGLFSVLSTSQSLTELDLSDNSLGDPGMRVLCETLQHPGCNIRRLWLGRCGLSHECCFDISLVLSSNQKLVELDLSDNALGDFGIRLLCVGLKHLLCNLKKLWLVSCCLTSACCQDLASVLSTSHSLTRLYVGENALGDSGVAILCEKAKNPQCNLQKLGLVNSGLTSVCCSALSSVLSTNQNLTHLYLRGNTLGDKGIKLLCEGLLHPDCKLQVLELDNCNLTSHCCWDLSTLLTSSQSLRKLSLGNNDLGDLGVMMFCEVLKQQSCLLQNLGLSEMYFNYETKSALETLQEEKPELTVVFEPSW

| Compound | IC50 |
| --- | --- |
| CCOc1cc(C(=O)N(C)[C@H](c2cncc3cn[nH]c23)C2CNC2)ccc1-c1cccc(C#N)c1 [Compound 142] | 1000 to 15000 nM |
| CCOc1cc(C(=O)N(C)[C@H](CCN(C)CCOC)c2cncc3cn[nH]c23)ccc1-c1cccc(F)c1 [Compound 263] | < 100 nM |
| CCOc1cc(C(=O)N(C)[C@H](CN(C)C)c2cccc3cn[nH]c23)ccc1-c1cccc(F)c1 [Compound 256] | 100 to 500 nM |
| CCOc1cc(C(=O)N(C)[C@@H](c2cncc3cn[nH]c23)C2CNC2)ccc1-c1cccc(C)c1 [Compound 168] | < 100 nM |
| CCOc1cc(C(=O)N(C)[C@H](CCN(C)C)c2ccc(C)c3cn[nH]c23)ccc1-c1cccc(F)c1 [Compound 200] | 100 to 500 nM |
| CCOc1cc(C(=O)N(C)[C@H](c2cncc3cn[nH]c23)C2CN(C)C2)ccc1-c1cccc(C#N)c1 [Compound 144] | < 100 nM |
| CCOc1cc(C(=O)N(Cc2cncc3cn[nH]c23)[C@H]2C[C@@H](NC)C2)ccc1-c1cccc(F)c1 [Compound 234] | 1000 to 15000 nM |
| CCOc1cc(C(=O)N(Cc2cncc3cn[nH]c23)C2CC(NC)C2)ccc1-c1cccc(Cl)c1 (stereo not shown) [Compound 236] | < 100 nM |
| CCOc1cc(C(=O)N(CCN2C[C@@H](F)C[C@H](F)C2)Cc2cncc3cn[nH]c23)ccc1-c1cccc(F)c1 [Compound 111] | < 100 nM |
| CCOc1cc(C(=O)N(CCO)Cc2cnc(CNC)c3cn[nH]c23)ccc1-c1cccc(F)c1 [Compound 050] | 1000 to 15000 nM |
| CCOc1cc(C(=O)N(C)[C@H](c2cnc(C)c3cn[nH]c23)C2CNC2)ccc1-c1cccc(F)c1 [Compound 072] | < 100 nM |
| CCOc1cc(C(=O)N(C)[C@H](CCN(C)C)c2cnc(C)c3cn[nH]c23)ccc1-c1cccc(C)c1 [Compound 084] | < 100 nM |
| CCOc1cc(C(=O)N(Cc2cnc(C)c3cn[nH]c23)[C@H]2C[C@@H](NC)C2)ccc1-c1cccc(F)c1 [Compound 278] | < 100 nM |
| CCOc1cc(C(=O)N(C)[C@@H](c2cncc3cn[nH]c23)[C@H]2CCNC2)ccc1-c1cccc(F)c1 (single isomer, unassigned) [Compound 089] | < 100 nM |
| CCOc1cc(C(=O)N(C)[C@@H](CCO)c2cncc3cn[nH]c23)ccc1-c1ccccc1 [Compound 010] | 1000 to 15000 nM |
| CCOc1cc(C(=O)N(C)[C@H](CN2CCCC2)c2cncc3cn[nH]c23)ccc1-c1cccc(F)c1 [Compound 129] | 500 to 1000 nM |
| CCOc1cc(C(=O)N(C)[C@H](c2cnc(C)c3cn[nH]c23)C2CN(C)C2)ccc1-c1cccc(F)c1 [Compound 065] | < 100 nM |
| CCOc1cc(C(=O)N(Cc2cncc3cn[nH]c23)[C@H]2CC[C@@H]2N)ccc1-c1cccc(F)c1 [Compound 294] | 500 to 1000 nM |
| CCOc1cc(C(=O)N(C)[C@H](CCN2CCC2)c2cccc3cn[nH]c23)ccc1-c1cccc(F)c1 [Compound 217] | < 100 nM |
| CCOc1cc(C(=O)N(C)[C@H](CC[N+](C)(C)[O-])c2cccc3cn[nH]c23)ccc1-c1cccc(F)c1 [Compound 227] | < 100 nM |
| CCOc1cc(C(=O)N(Cc2cncc3cn[nH]c23)[C@H]2CC[C@@H]2N)ccc1-c1cccc(Cl)c1 [Compound 287] | 500 to 1000 nM |
| CCOc1cc(C(=O)N(C)[C@H](CC[N+]([O-])(CC)CC)c2cccc3cn[nH]c23)ccc1-c1cccc(Cl)c1 [Compound 207] | < 100 nM |
| CCOc1cc(C(=O)N(C)[C@H](CN2CCCC2)c2cccc3cn[nH]c23)ccc1-c1cccc(F)c1 [Compound 222] | 500 to 1000 nM |

| Compound | IC50 |
| --- | --- |
| CCOc1cc(C(=O)N(C)[C@H](CC[N+](C)(C)[O-])c2cncc3cn[nH]c23)ccc1-c1cccc(C)c1 [Compound 164] | < 100 nM |
| CCOc1cc(C(=O)N(C)[C@H](CCN(C)CCO)c2cncc3cn[nH]c23)ccc1-c1cccc(Cl)c1 [Compound 230] | < 100 nM |
| CCOc1cc(C(=O)N(CCO)Cc2cnc(N)c3cn[nH]c23)ccc1-c1cccc(Cl)c1 [Compound 046] | < 100 nM |
| CCOc1cc(C(=O)N(C)[C@@H](c2cncc3cn[nH]c23)[C@H]2CCNC2)ccc1-c1ccccc1 [Compound 152] | 500 to 1000 nM |
| CCOc1cc(C(=O)N(C)[C@H](CCN2C[C@@H](F)[C@@H](F)C2)c2cncc3cn[nH]c23)ccc1-c1cccc(F)c1 [Compound 086] | < 100 nM |
| CCOc1cc(C(=O)N(Cc2cccc3cn[nH]c23)[C@H]2C[C@@H](N(C)C)C2)ccc1-c1cccc(F)c1 [Compound 251] | < 100 nM |
| CCOc1cc(C(=O)N(C)[C@H](CCN(C)C)c2cccc3cn[nH]c23)ccc1-c1cccc(C#N)c1 [Compound 196] | < 100 nM |
| CCOc1cc(C(=O)N(C)[C@H](CO)c2cnc(CO)c3cn[nH]c23)ccc1-c1cccc(F)c1 [Compound 037] | < 100 nM |
| CCOc1cc(C(=O)N(C)[C@H](CCNC)c2cncc3cn[nH]c23)ccc1-c1cc(F)cc(C#N)c1 [Compound 280] | < 100 nM |
| CCOc1cc(C(=O)N(CCNC)Cc2cncc3cn[nH]c23)ccc1-c1cccc(F)c1 [Compound 116] | < 100 nM |
| CCOc1cc(C(=O)N(CCO)Cc2cnc(N)c3cn[nH]c23)ccc1-c1cccc(F)c1 [Compound 047] | 100 to 500 nM |
| CCOc1cc(C(=O)N(C)[C@@H](CCO)c2cnc(C)c3cn[nH]c23)ccc1-c1cccc(C#N)c1 [Compound 030] | > 15000 nM |
| CCOc1cc(C(=O)N(C)[C@H](CCN(C)C)c2cnc(C)c3cn[nH]c23)ccc1-c1ccccc1 [Compound 074] | < 100 nM |
| CCOc1cc(C(=O)N(Cc2cccc3cn[nH]c23)[C@H]2C[C@@H](N(C)C)C2)ccc1-c1cccc(C#N)c1 [Compound 293] | < 100 nM |
| CCOc1cc(C(=O)N(C)[C@H](CC[N+](C)(C)[O-])c2cncc3cn[nH]c23)ccc1-c1cccc(Cl)c1 [Compound 210] | 1000 to 15000 nM |
| CCOc1cc(C(=O)N(C)[C@H](c2cncc3cn[nH]c23)C2CN(C(C)C)C2)ccc1-c1cccc(F)c1 [Compound 176] | 100 to 500 nM |
| CCOc1cc(C(=O)N(C)[C@H](CCN(C)C)c2cncc3cn[nH]c23)ccc1C(C)C [Compound 158] | 1000 to 15000 nM |
| CCOc1cc(C(=O)N(C)[C@H](CCN(C)CCF)c2cncc3cn[nH]c23)ccc1-c1ccccc1 [Compound 155] | < 100 nM |
| CN(C(=O)c1ccc(-c2cccc(F)c2)c(OC2CC2)c1)[C@@H](CCO)c1cncc2cn[nH]c12 [Compound 011] | 1000 to 15000 nM |
| CCOc1cc(C(=O)N(CCN)Cc2cncc3cn[nH]c23)ccc1-c1cccc(F)c1 [Compound 055] | < 100 nM |
| CCOc1cc(C(=O)N(C)[C@@H](c2cnc(C)c3cn[nH]c23)C2CNC2)ccc1-c1cccc(F)c1 [Compound 078] | < 100 nM |
| CCOc1cc(C(=O)N(Cc2cncc3cn[nH]c23)C2CC(NC)C2)ccc1-c1cccc(F)c1 (stereo not shown) [Compound 235] | 100 to 500 nM |
| CCOc1cc(C(=O)N(C)[C@H](c2cncc3cn[nH]c23)[C@@H]2CCNC2)ccc1-c1cccc(F)c1 (single isomer, unassigned) [Compound 088] | 100 to 500 nM |

| Compound | IC50 |
| --- | --- |
| CCOc1cc(C(=O)N(C)[C@H](CCN(C)C)c2cnc(CO)c3cn[nH]c23)ccc1-c1cccc(Cl)c1 [Compound 068] | < 100 nM |
| CCOc1cc(C(=O)N(C)C(CCN(C)C)c2cccc3cn[nH]c23)ccc1-c1ccccc1 (stereo not shown) [Compound 135] | < 100 nM |
| CCOc1cc(C(=O)N(CCN2CCC(F)(F)C2)Cc2cncc3cn[nH]c23)ccc1-c1cccc(F)c1 [Compound 115] | < 100 nM |
| CCOc1cc(C(=O)N(C)[C@@H](CCO)c2cnc(C)c3cn[nH]c23)ccc1-c1cccc(Cl)c1 [Compound 029] | < 100 nM |
| CCOc1cc(C(=O)N(C[C@H](C)O)[C@@H](C)c2cnc(C)c3cn[nH]c23)ccc1-c1cccc(F)c1 [Compound 061] | > 15000 nM |
| CCOc1cc(C(=O)N(CCN2C[C@@H](F)[C@@H](F)C2)Cc2cncc3cn[nH]c23)ccc1-c1cccc(F)c1 [Compound 108] | < 100 nM |
| CCOc1cc(C(=O)N(C)[C@@H](c2cncc3cn[nH]c23)[C@H]2CCN(C)C2)ccc1-c1cccc(F)c1 [Compound 082] | < 100 nM |
| CCOc1cc(C(=O)N(C)[C@H](CCN(C)CCOC)c2cncc3cn[nH]c23)ccc1-c1cccc(Cl)c1 [Compound 229] | < 100 nM |
| CCOc1cc(C(=O)N(C)[C@@H](c2cncc3cn[nH]c23)C2CN(C(C)C)C2)ccc1-c1ccccc1 [Compound 179] | < 100 nM |
| CCOc1cc(C(=O)N(C)[C@H](CCN2CCCC2)c2cncc3cn[nH]c23)ccc1-c1cccc(F)c1 [Compound 104] | < 100 nM |
| CCOc1cc(C(=O)N(C)[C@H](CCN2CC(F)C2)c2cncc3cn[nH]c23)ccc1-c1cccc(F)c1 [Compound 070] | < 100 nM |
| CCNCC[C@H](c1cncc2cn[nH]c12)N(C)C(=O)c1ccc(-c2cccc(F)c2)c(OCC)c1 [Compound 167] | < 100 nM |
| CCOc1cc(C(=O)N(C)[C@H](CCOC)c2cncc3cn[nH]c23)ccc1-c1cccc(F)c1 [Compound 015] | < 100 nM |
| CCOc1cc(C(=O)N(C)[C@H](c2cncc3cn[nH]c23)C2CN(C(C)C)C2)ccc1-c1ccccc1 [Compound 132] | 1000 to 15000 nM |
| CCOc1cc(C(=O)N(C)[C@H](CO)c2cncc3cn[nH]c23)ccc1-c1ccccc1 [Compound 005] | < 100 nM |
| CCOc1cc(C(=O)N(C)[C@H](CN(C)C)c2cccc3cn[nH]c23)ccc1-c1cccc(Cl)c1 [Compound 220] | 100 to 500 nM |
| CCOc1cc(C(=O)N(C)[C@H](c2cncc3cn[nH]c23)C2CN(CC)C2)ccc1-c1cccc(C)c1 [Compound 171] | < 100 nM |
| CCOc1cc(C(=O)N(C)[C@@H](CCN)c2cnc(C)c3cn[nH]c23)ccc1C [Compound 299] | 1000 to 15000 nM |
| CCOc1cc(C(=O)N(C)[C@@H](CO)c2cnc(C)c3cn[nH]c23)ccc1-c1cccc(F)c1 [Compound 027] | < 100 nM |
| CCOc1cc(C(=O)N(C)[C@H](CCN(CCF)CCF)c2cncc3cn[nH]c23)ccc1-c1cccc(F)c1 [Compound 064] | < 100 nM |
| CCOc1cc(C(=O)N(C)C(CN2CCC2)c2cccc3cn[nH]c23)ccc1-c1cccc(F)c1 (stereo not shown) [Compound 264] | < 100 nM |

From patent publication US12509459B2, “Inhibitors of NLRP3 inflammasome” (BioAge Labs, Inc., priority 2024, dated 2025)
